Positions of bridges follow the written chain, without caps; N, C: chain ends. No end group written: not given here.
Assays:
[1] = tested on: Human umbilical artery vascular smooth muscle; test: Vascular muscular thin film (vMTF) contractility assay, films adhered to PTFE coated posts; format: cell-based
Experimental: Human umbilical artery vascular smooth muscle was seeded on thin films at 300 cells/mm^2 in complete M199 medium (M199 supplemented with 10% fetal bovine serum (FBS), penicillin, streptomycin, L-glutamine, glucose and vitamin B12). The tissue was cultured in complete M199 for 48 hours, with a single media change at 24 hours. After 48 hours, the cells were serum starved for an additional 48 hours (M199 supplemented with penicillin, streptomycin, L-glutamine, glucose and vitamin B12, but no FBS).
Muscle thin films were transferred to fresh Tyrode's solution in the testing dish (FIG. 1), which is maintained at 37° C. by a peltier heating system. Films were adhered to Teflon coated posts (FIG. 3) by moving them into close contact using tweezers. The films were imaged using a stereomicroscope outfitted with fluorescent imaging capability. Both brightfield and fluorescent images were captured every thirty seconds. In the experiment shown in FIG. 4, four films were treated with 50 nM endothelin-1 followed by 100 μM HA-1077 (fasudil).
Quantification and analysis of thin film motion was performed using ImageJ (NIH) and MATLAB software. Thresholded fluorescent images (FIG. 4 B) were fit to circles whose radii of curvature could be measured (FIG. 4C). Using elasticity theory, the contraction stress necessary to induce the measured changes in curvature were calculated (FIG. 4D).
Human umbilical artery VSMCs were engineered as anisotropic monolayers aligned parallel to the long axis of the MTF. The vMTFs were adhered to PTFE coated posts via hydrophobic interaction with the PDMS. This arrangement allowed multiple vMTFs to be viewed concurrently. Here, eight vMTFs were tested using this assay. The fluorosphere doped PDMS could be viewed using fluorescent stereomicroscopy. In this arrangement, the films are easily approximated as circular arcs.
The vMTFs were treated with the endothelium-produced vasoconstrictor endothelin-1 followed by the rho-kinase inhibitor HA-1077, in order to calculate all of the relevant stress states of arterial muscle. […] This value represents the resting tension of the tissue. […] The HA-1077 dosage is sufficient to inhibit all myosin light chain phosphorylation, so this value represents the residual stress, or the stress generated by the cytoskeletal elements not involved in the contractile apparatus, but which remains after all other loads are removed.

[2] = tested on: vascular smooth muscle cells; test: Horizontal muscular thin film (hMTF) contractility assay with vascular smooth muscle cells; format: cell-based
Experimental: FIG. 12 contrasts the use of fluorescent microscopy and the use of brightfield stereo microscopy of vascular smooth muscle (VSM) horizontal MTFs during an assay of the invention as described in Example 5. The top row depicts fluorescent microscopy photographs of VSM horizontal MTFs comprising fluorescent beads embedded in the PDMS film. […] (A) Photographs taken 5 minutes after the start of the experiment, the films are slightly bent up from the glass due to the initial contraction of VSM. (B) Photographs taken 20 minutes after addition of the vasoconstrictor (Endothilin-1), which causes the VSM to contract and the films to bend up from the glass. […] Actuation and observation of multiple MTFs was carried out in a physiologic solution (e.g., normal Tyrodes solution). The horizontal […]) fabricated with vascular smooth muscle cells in the presence of fluorescent beads were treated with the endothelium-produced vasoconstrictor endothelin-1 (ET-1) followed by the rho-kinase inhibitor HA-1077. […] Quantification and analysis of thin film motion was performed using ImageJ (NIH) and MATLAB software. From the thresholded fluorescent images the length of the projection of the film on the horizontal plane was tracked throughout the contraction and the radius of curvature calculated. Using elasticity theory, the contraction stress necessary to induce the measured changes in curvature were calculated.

| Compound | change in radius of curvature of vMTFs ([1]; 100 μM HA-1077 following ET-1) | stress after inhibition of contraction (residual stress) ([1]; treatment with 100 μM HA-1077 following 50 nM ET-1) [kPa] | change in radius of curvature of hMTFs ([2]; 100 mM HA-1077 following ET-1) | effect on VSM horizontal MTFs (FIG. 12C) ([2]; 30 minutes after addition of rho-kinase inhibitor, films lie flat on the glass) | change in radius of curvature of vMTFs ([1]; 50 nM ET-1) | increase in cell generated stress ([1]; vMTFs stimulated with 50 nM ET-1 at time 0, basal stress 17.1±1.7 kPa) [kPa] | change in radius of curvature of hMTFs ([2]; 50 nM ET-1 at time 0) | effect on VSM horizontal MTFs (FIG. 12B) ([2]; 20 minutes after addition of the vasoconstrictor, films bend up from the glass) |
| --- | --- | --- | --- | --- | --- | --- | --- | --- |
| O=S(=O)(c1cccc2cnccc12)N1CCCNCC1 [HA-1077, fasudil] | rapid increase in radius of curvature | 3.1±0.8 | rapid increase in radius of curvature | completely relax |  |  |  |  |
| endothelin-1 (CSCSSLMDKECVYFCHLDIIW; disulfide 1-15, 3-11; ends not checked; UniProt P05305 53-73, looked up) [ET-1, endothelium-produced vasoconstrictor] |  |  |  |  | decrease in their radii of curvature | 5.06±0.75 | decrease in their radii of curvature | contract |

From patent publication US9719982B2, “Devices comprising muscle thin films and uses thereof in high throughput assays for determining contractile function” (President and Fellows of Harvard College, priority 2009, dated 2017)
